Where two headings read alike, the source gives them in different places. Marks after values point to notes of the source that are not given here.
Columns and labels:
R. solanacearum [1] = format: in vivo, Ralstonia solanacearum; details: beef tomato, soil drench before inoculation and at 3 and 10 dpi, 5 mg/L IBA and/or 20 mg/L Kinetin; for Severity score at days post infection (dpi): 9 / Severity score at days post infection (dpi): 11 / Severity score at days post infection (dpi): 13: 0-5 disease scale, mean n=12; for Severity score at days post infection (dpi): 9: 9 dpi; for Severity score at days post infection (dpi): 11: 11 dpi; for Severity score at days post infection (dpi): 13 / Survival Rate (13 dpi): 13 dpi; for Survival Rate (13 dpi): n=12
Ralstonia solanacearum = format: in vivo; details: beef tomato, foliar spray at 3 and 10 dpi, 5 mg/L IBA and/or 15 mg/L Kinetin in 0.1% (v/v) Tween 80; for Severity score at days post infection (dpi): 9 / Severity score at days post infection (dpi): 11 / Severity score at days post infection (dpi): 13: 0-5 disease scale, mean n=12; for Severity score at days post infection (dpi): 9: 9 dpi; for Severity score at days post infection (dpi): 11: 11 dpi; for Severity score at days post infection (dpi): 13 / Survival Rate (13 dpi): 13 dpi; for Survival Rate (13 dpi): n=12
R. solanacearum [2] = format: in vivo, Ralstonia solanacearum; details: beef tomato, soil drench at 3 and 10 dpi, 5 mg/L IBA and/or 15 mg/L Kinetin; for Severity score at days post infection (dpi): 9 / Severity score at days post infection (dpi): 11 / Severity score at days post infection (dpi): 13: 0-5 disease scale, mean n=12; for Severity score at days post infection (dpi): 9: 9 dpi; for Severity score at days post infection (dpi): 11: 11 dpi; for Severity score at days post infection (dpi): 13 / Survival Rate (13 dpi): 13 dpi; for Survival Rate (13 dpi): n=12

SMILES | Severity score at days post infection (dpi): 9 (R. solanacearum [1]) | Severity score at days post infection (dpi): 11 (R. solanacearum [1]) | Severity score at days post infection (dpi): 13 (R. solanacearum [1]) | Survival Rate (13 dpi) (R. solanacearum [1]) [%] | Severity score at days post infection (dpi): 9 (Ralstonia solanacearum) | Severity score at days post infection (dpi): 11 (Ralstonia solanacearum) | Severity score at days post infection (dpi): 13 (Ralstonia solanacearum) | Survival Rate (13 dpi) (Ralstonia solanacearum) [%] | Severity score at days post infection (dpi): 9 (R. solanacearum [2]) | Severity score at days post infection (dpi): 11 (R. solanacearum [2]) | Severity score at days post infection (dpi): 13 (R. solanacearum [2]) | Survival Rate (13 dpi) (R. solanacearum [2]) [%]
O=C(O)CCCc1c[nH]c2ccccc12 [IBA, indole-3-butyric acid] | 0.92 | 1.58 | 2.17* | 75 | 0.25* | 2.50 | 3.25 | 58 | 0.25* | 1.00* | 2.50 | 67
c1coc(CNc2ncnc3nc[nH]c23)c1 [Kinetin, N6-furfuryladenine] | 0.83 | 1.42 | 2.08* | 75 | 0.42 | 2.08 | 3.17 | 58 | 0.25* | 1.08* | 2.58 | 75

— patent US20210298307A1 (priority 2020, published 2021)
